Values joined by “and” are separate entries in the source; they are usually repeats but may differ in a detail not shown here. Equal entries are not always repeated.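 Method: 48-hour compound exposure of cells in 96-well plates, five concentrations, linear interpolation of endpoints. At the GI50, growth is halved. The concentration for full growth arrest is given as TGI.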 Where only a bound is given, the exact number is not on record here.

One test concerns HOP-62 NSCLC. Briefly: growth of human tumour cells (NCI), 48 h.
Regarding `COC(=O)c1nc(NN)[nH]c(=O)c1CCCCCc1c(C(=O)OC)[nH]c(NN)cc1=O`, the TGI is > 100 µM.

For the compound `CC1(C)C(=O)C(O)=CC2C1=CCC1C2(C)C(=O)CC2(C)C(C(C)(O)C(=O)CC(O)C(C)(C)O)C(O)CC12C` (stereo unspecified), the TGI is 11.5 µM.

Regarding `CCc1ccccc1NC(=O)C(=O)C(C(=O)c1ccc(OC)cc1)c1ccc(OC)cc1` (stereo unspecified), the TGI is > 100 µM.

On to `Cc1ccc(C(=O)Cc2nc3c([nH]c2=O)c(C)nn3-c2ccccc2)c(C)c1`, for which the TGI was > 10 µM.

In the case of `C/C(=N/N(C=O)C[n+]1ccccc1)C(CN(CC(C)C)CC(C)C)C(=O)Nc1ccc(C)cc1C` (stereo unspecified), the TGI is > 100 µM.

`COc1cc(C2c3cc4c(cc3[C@@H](Nc3ccc(N(C)C)cc3)[C@H]3COC(=O)C23)OCO4)cc(OC)c1O` (stereo partly specified): the GI50 is 0.187 µM; the TGI is 0.385 µM and 1.23 µM.

For the compound `O=c1nc(-c2ccccc2)c2c3c(cccn13)CCC2`, the TGI was > 100 µM.

As to `COc1ccc([C@H]2CC(=O)N3CCCC3N2)cc1` (stereo partly specified), the TGI is > 100 µM.

`O=C(c1ccccc1)c1c(CC(O)c2cccnc2)n(C(=O)c2ccccc2)c2ccccc12` (stereo unspecified) yielded a TGI of 30.4 µM.

`C=C(C)C1CC2C(C)=C(OC(C)=O)C1n1c(=O)c3cc4ccccc4cc3c(=O)n12` (stereo unspecified): the TGI was > 100 µM.

`O=C(CC(C(=O)c1cccs1)c1ccc2c(c1)OCO2)c1ccc(Br)cc1` (stereo unspecified): the TGI is > 100 µM.

On to `O=C(CCc1nc(=S)[nH][nH]1)NC12CC3CC(CC(C3)C1)C2`, for which the TGI was > 100 µM.

As for `CSc1nc2c(c(O)c(C)c(=O)n2C2OC(COC(C)=O)C(OC(C)=O)C(OC(C)=O)C2OC(C)=O)c(=O)n1C` (stereo unspecified), the TGI was > 100 µM.

On to `Cc1nc2c(n1CC(C)(C)C)C(=O)c1ccccc1C2=O`, for which the TGI was > 100 µM.

In turn, `COc1ccc(C(C2=C(C)C(=O)c3ccccc3C2=O)c2ccc(C(C)C)cc(=O)c2O)cc1` (stereo unspecified) gave a TGI of 6.65 µM.

On to `CC(C)N(C(=O)C12C3C4C1C1C2C3C41C(O)C(C)(C)C)C(C)C` (stereo unspecified), for which the TGI is > 50 µM.

For `Nc1c(C(=O)Nc2ccc([As](=O)(O)O)cc2)cnc2nnnn12`, the TGI was > 100 µM.

Consider `N#CC(C#N)SCc1ccccc1`, for which the TGI was > 100 µM.

Turning to `Cc1cc(N(CCNc2ccnc3cc(Cl)ccc23)Cc2ccc3c(c2)OCO3)nc(N2CCN(C)CC2)n1`, the GI50 is 2.22 µM and the TGI came to 15.4 µM.

For the compound `Cc1c(C)c2cc3c(=O)ccoc3c(C)c2oc1=O`, the TGI is > 100 µM.

Another test deals with DU-145 prostate. Briefly: growth of human tumour cells (NCI), 48 h.
For `O=c1oc2ccccc2c(O)c1C=NC(=S)c1ccncc1`, the TGI is > 100 µM.

Regarding `Cc1ccc(C(=O)Cc2nc3c([nH]c2=O)c(C)nn3-c2ccccc2)c(C)c1`, the TGI was > 10 µM.

On to `O=C(CC(C(=O)c1cccs1)c1ccc2c(c1)OCO2)c1ccc(Br)cc1` (stereo unspecified), for which the TGI is > 100 µM.

For the compound `Nc1c(C(=O)Nc2ccc([As](=O)(O)O)cc2)cnc2nnnn12`, the TGI was > 100 µM.

`N#CC(C#N)SCc1ccccc1`: the TGI is 55.3 µM.

In another test the test system is OVCAR-4 ovarian. The experiment in a line: growth of human tumour cells (NCI), 48 h.
Take `O=C1c2ccccc2N2OC3(N4CCCC4)CCCC3C12c1ccccc1` (stereo unspecified): the TGI was > 100 µM.

Take `COc1ccc(C2C(Cl)C(=O)N2n2cnc3ccccc3c2=O)cc1OC` (stereo unspecified): the TGI is > 100 µM.

Take `Nc1nc2c(ncn2Cc2ccccc2CCO)c(=O)[nH]1`: the TGI was > 100 µM.

With `CCC1(Br)C(=O)NC(=O)N(C2CC(O)C(CO)O2)C1N=[N+]=[N-]` (stereo unspecified), the TGI was > 100 µM.

For `O=c1oc2ccccc2c(O)c1C=NC(=S)c1ccncc1`, the TGI is > 100 µM.

`O=[N+]([O-])c1ccc(N=Nc2c(O)[nH]c3ccc([N+](=O)[O-])cc23)cc1` displayed a TGI of 38.6 µM.

As for `CC12CC3(C)CC(C)(C1)CC(N=[N+]=[N-])(C2)C3`, the TGI is > 100 µM.

Regarding `N=C(N)SCc1cn2ccccc2n1`, the TGI was > 100 µM.

`Clc1ccc([O][In]([O]c2ccc(Cl)cn2)[O]c2ccc(Cl)cn2)nc1`: the GI50 was > 100 µM and the TGI was > 100 µM.

As to `Fc1cccc(Cl)c1C1SCc2nc3ccccc3n21` (stereo unspecified), the TGI was > 100 µM.

In the case of `COc1cc2nncc(Sc3cnnc4ccccc34)c2cc1OC`, the TGI is > 100 µM.

`CC(=O)N(CCN)CCN`: the TGI was > 10 µM.

Take `Cc1cc(O)c2c(c1)C(O)(c1ccc3c(c1O)C(=O)c1c(O)cc(C)cc1C3(O)C1OC(CO)C(O)C(O)C1O)c1cccc(O)c1C2=O` (stereo unspecified): the TGI stood at 26.4 µM.

With `COC(=O)c1nc(NN)[nH]c(=O)c1CCCCCc1c(C(=O)OC)[nH]c(NN)cc1=O`, the TGI is > 100 µM.

For `CC1(C)C(=O)C(O)=CC2C1=CCC1C2(C)C(=O)CC2(C)C(C(C)(O)C(=O)CC(O)C(C)(C)O)C(O)CC12C` (stereo unspecified), the TGI came out at 11.8 µM.

For `CCc1ccccc1NC(=O)C(=O)C(C(=O)c1ccc(OC)cc1)c1ccc(OC)cc1` (stereo unspecified), the TGI was > 100 µM.

The compound `Cc1ccc(C(=O)Cc2nc3c([nH]c2=O)c(C)nn3-c2ccccc2)c(C)c1` came in with a TGI of 5.19 µM.

On to `C/C(=N/N(C=O)C[n+]1ccccc1)C(CN(CC(C)C)CC(C)C)C(=O)Nc1ccc(C)cc1C` (stereo unspecified), for which the TGI was > 100 µM.

As to `COc1cc(C2c3cc4c(cc3[C@@H](Nc3ccc(N(C)C)cc3)[C@H]3COC(=O)C23)OCO4)cc(OC)c1O` (stereo partly specified), the GI50 was 13 µM; the TGI is 18.7 µM and 25.8 µM.

For `O=c1nc(-c2ccccc2)c2c3c(cccn13)CCC2`, the TGI was > 100 µM.

As to `COc1ccc([C@H]2CC(=O)N3CCCC3N2)cc1` (stereo partly specified), the TGI is > 100 µM.

Turning to `O=C(c1ccccc1)c1c(CC(O)c2cccnc2)n(C(=O)c2ccccc2)c2ccccc12` (stereo unspecified), the TGI was found to be 42.4 µM.

In the case of `C=C(C)C1CC2C(C)=C(OC(C)=O)C1n1c(=O)c3cc4ccccc4cc3c(=O)n12` (stereo unspecified), the TGI was > 100 µM.

In the case of `O=C(CC(C(=O)c1cccs1)c1ccc2c(c1)OCO2)c1ccc(Br)cc1` (stereo unspecified), the TGI is > 100 µM.

On to `O=C(CCc1nc(=S)[nH][nH]1)NC12CC3CC(CC(C3)C1)C2`, for which the TGI was > 100 µM.

Regarding `CSc1nc2c(c(O)c(C)c(=O)n2C2OC(COC(C)=O)C(OC(C)=O)C(OC(C)=O)C2OC(C)=O)c(=O)n1C` (stereo unspecified), the TGI was > 100 µM.

As for `Cc1nc2c(n1CC(C)(C)C)C(=O)c1ccccc1C2=O`, the TGI was > 100 µM.

For the compound `COc1ccc(C(C2=C(C)C(=O)c3ccccc3C2=O)c2ccc(C(C)C)cc(=O)c2O)cc1` (stereo unspecified), the TGI is > 100 µM.

As to `Nc1c(C(=O)Nc2ccc([As](=O)(O)O)cc2)cnc2nnnn12`, the TGI was > 100 µM.

For the compound `N#CC(C#N)SCc1ccccc1`, the TGI was > 100 µM.

`Cc1cc(N(CCNc2ccnc3cc(Cl)ccc23)Cc2ccc3c(c2)OCO3)nc(N2CCN(C)CC2)n1`: the GI50 is 2.83 µM and the TGI was 13.9 µM.
